Earlier results in patent US20170189326A1, “Topical Antiaging Polyphenol Compositions” (priority 2015, published 2017).

Test system: dimethylnitrosamine-induced hepatic injury
Conditions: oral administration, rats

COc1cc(/C=C/C(=O)CC(=O)/C=C/c2ccc(O)c(OC)c2)ccc1O [curcumin]
protection against dimethylnitrosamine-induced hepatic injury: protected
